Consider six substances from US9808512B2, “Anti-cell proliferative compounds and methods of use” (KALOS Therapeutics, priority 2007, dated 2017).

Several values for one entry are separate records, joined by “and”; a condition that tells them apart may be missing. Identical values can stand only once. Entries after “also recorded” stand apart in the source; their conditions may differ.

Assay [1] has as its system Human Pancreatic Adenocarcinoma Cells (HPAC). Kind of assay: HPAC cell viability, Calbiochem Rapid Cell Proliferation Kit, optical density at 450 nm. The assay is classed as cell-based. As to conditions: 48 hours; for Optical Densities in 96_Well Plate, Average: average of 5 replicate wells; for Optical Densities in 96_Well Plate: single replicate wells. As for the experimental part: Human Pancreatic Adenocarcinoma Cells (HPAC) cells were obtained from ATCC and propagated in Dulbecco's modified Eagle's medium and Ham's F12 medium (DME-F12) (1:1) containing 2.5 mM glutamine, […], 5 ug/mL transferrin, 1 ng/mL EGF (epidermal growth factor), plus 5% FBS (fetal bovine serum). Cell cultures were incubated at 37° C., 5% CO2 in a 100% humidity atmosphere. The cells were routinely brought to confluence in T-flasks, rinsed with phosphate buffered saline (PBS), and treated with trypsin for 5 min at room temp. The trypsinized cells were rinsed from the plate with 10 mL medium and counted. Viability at subculturing was generally ≧95%.
Approximately 10,000 cells in 100 uL of medium were placed in each well of a 96-well plate and incubated over night. Peptides having the following sequences were used: Arg-15-Cys (RSSCAGAALSPLGAC; SEQ. ID NO:122); Pro-15-Val (PNEEAGAALSPLPEV; SEQ. ID NO:121); Ala-8-Leu (AGAALSPL; SEQ. ID NO:85); C-ANP 4-23 ([…]; SEQ. ID NO:124) and, VDL ([…]; SEQ. ID NO:125). The peptides were dissolved in PBS and sterile filtered. The peptides were diluted into the cell culture medium to the following final concentrations: 1, 0.3, 0.1, 0.03, and 0.01 uM. Each peptide was tested in 5 replicate wells. The cultures were incubated for an additional 48 hours at 37° C.
The viability of the cells was determined using a Calbiochem Rapid Cell Proliferation Kit (catalog number QIA127). Ten uL of Calbiochem color reagent was added to each well and incubated for an additional 1.5 hours at 37° C. Optical densities were read at 450 nm using a Molecular Devices ThermoMax microplate reader. The plate template is shown in Table I (unlabeled wells contained cells but no peptide and were used as blanks). Results are presented in Table I, and are graphically illustrated in FIGS. 1 and 2.

The next assay has as its system cancer cells. To be noted: known natriuretic peptides; cited from earlier work.
The next assay addresses T1, NPRC (Homo sapiens, UniProt P17342).
T1 sequence (P17342 27-541): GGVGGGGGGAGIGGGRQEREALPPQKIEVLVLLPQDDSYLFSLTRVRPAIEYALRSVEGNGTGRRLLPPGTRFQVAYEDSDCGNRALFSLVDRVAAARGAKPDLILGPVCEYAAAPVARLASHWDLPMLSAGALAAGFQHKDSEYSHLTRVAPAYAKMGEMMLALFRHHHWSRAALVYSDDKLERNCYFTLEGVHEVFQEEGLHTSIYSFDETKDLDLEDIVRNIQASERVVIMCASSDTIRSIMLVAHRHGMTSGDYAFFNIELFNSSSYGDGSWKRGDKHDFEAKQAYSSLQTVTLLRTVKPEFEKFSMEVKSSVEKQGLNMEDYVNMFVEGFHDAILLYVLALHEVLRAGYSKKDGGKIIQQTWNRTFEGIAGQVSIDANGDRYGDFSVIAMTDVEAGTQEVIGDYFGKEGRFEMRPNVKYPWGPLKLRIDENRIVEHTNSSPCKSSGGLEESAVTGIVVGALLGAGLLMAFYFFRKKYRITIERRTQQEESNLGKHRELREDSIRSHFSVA
To be noted: cited from earlier work.

A further assay deals with T2, NPRA (Homo sapiens, UniProt P16066).
T2 sequence (P16066 33-1061): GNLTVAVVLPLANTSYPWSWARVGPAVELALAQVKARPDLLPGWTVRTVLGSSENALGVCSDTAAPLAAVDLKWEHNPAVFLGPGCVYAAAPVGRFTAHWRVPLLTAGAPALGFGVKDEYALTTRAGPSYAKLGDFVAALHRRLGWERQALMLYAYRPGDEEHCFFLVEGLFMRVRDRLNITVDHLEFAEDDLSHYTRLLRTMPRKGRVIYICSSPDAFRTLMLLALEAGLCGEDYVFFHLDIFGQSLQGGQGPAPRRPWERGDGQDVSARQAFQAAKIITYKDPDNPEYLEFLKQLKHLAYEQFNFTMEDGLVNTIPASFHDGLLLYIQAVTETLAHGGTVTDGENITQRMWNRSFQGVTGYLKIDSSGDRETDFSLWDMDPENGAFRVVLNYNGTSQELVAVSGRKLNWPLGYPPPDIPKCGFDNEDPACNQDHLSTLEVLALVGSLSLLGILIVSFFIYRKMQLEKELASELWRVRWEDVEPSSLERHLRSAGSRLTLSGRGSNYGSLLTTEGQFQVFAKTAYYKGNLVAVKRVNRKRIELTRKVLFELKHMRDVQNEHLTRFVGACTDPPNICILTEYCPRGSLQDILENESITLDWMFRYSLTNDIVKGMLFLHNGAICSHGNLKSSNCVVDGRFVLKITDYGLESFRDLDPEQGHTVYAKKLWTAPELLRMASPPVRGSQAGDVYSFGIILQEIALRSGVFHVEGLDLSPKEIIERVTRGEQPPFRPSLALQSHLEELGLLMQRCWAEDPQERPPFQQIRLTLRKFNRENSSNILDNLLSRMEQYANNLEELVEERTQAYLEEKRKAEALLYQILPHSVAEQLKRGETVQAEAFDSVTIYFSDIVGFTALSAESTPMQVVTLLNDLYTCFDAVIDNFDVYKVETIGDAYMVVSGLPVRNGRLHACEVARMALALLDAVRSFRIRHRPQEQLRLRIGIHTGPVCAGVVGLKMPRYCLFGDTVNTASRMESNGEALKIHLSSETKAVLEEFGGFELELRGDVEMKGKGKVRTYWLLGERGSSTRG
As to conditions: cited from earlier work.

For RSSCAGAALSPLGAC [Arg-15-Cys, ID NO:122], the “Optical Densities in 96_Well Plate, Average” value (shortened to “Optical Densities … Average”) in assay [1] (peptide 0.01 μM) was found to be 0.934; in assay [1] (peptide 0.03 μM) it was 0.982; in assay [1] (peptide 0.1 μM), 0.950; in assay [1] (peptide 0.3 μM), 0.897; in assay [1] (peptide 1.0 μM) it was 0.962. Further, the “Optical Densities in 96_Well Plate” value in assay [1] (peptide 0.01 μM) is 0.974 and 0.920 and 0.863 and 0.840 and 1.075; in assay [1] (peptide 0.03 μM), 1.093 and 0.894 and 0.789 and 0.955 and 1.178; in assay [1] (peptide 0.1 μM) it was 1.016 and 0.917 and 0.801 and 0.990 and 1.025; in assay [1] (peptide 0.3 μM) it was 0.988 and 0.957 and 0.668 and 0.913 and 0.959; in assay [1] (peptide 1.0 μM) it was 1.155 and 1.005 and 0.787 and 0.944 and 0.919.
Consider “RSSCFGGRIDRIGAC [C-ANP 4-23, ID NO:124, reference compound]”, for which the “Optical Densities … Average” value in assay [1] (peptide 0.01 μM) was 0.938; in assay [1] (peptide 0.03 μM) it was 0.932; in assay [1] (peptide 0.1 μM), 0.942; in assay [1] (peptide 0.3 μM) it was 0.942; in assay [1] (peptide 1.0 μM), 0.925. Besides, the “Optical Densities in 96_Well Plate” value is 0.877 and 0.971 and 0.953 and 0.932 and 0.958 in assay [1] (peptide 0.01 μM); 0.905 and 0.882 and 0.981 and 0.948 and 0.943 in assay [1] (peptide 0.03 μM); 0.758 and 1.027 and 0.983 and 0.960 and 0.982 in assay [1] (peptide 0.1 μM); 0.840 and 0.928 and 1.035 and 0.975 and 0.932 in assay [1] (peptide 0.3 μM); 0.865 and 0.925 and 0.900 and 0.955 and 0.981 in assay [1] (peptide 1.0 μM). The “anticancer activity / relative potency” value with cancer cells was “have anticancer activity”.
Turning to PNEEAGAALSPLPEV [Pro-15-Val, ID NO:121], the “Optical Densities … Average” value in assay [1] (peptide 0.01 μM) was determined as 0.916; in assay [1] (peptide 0.03 μM), 0.894; in assay [1] (peptide 0.1 μM), 0.918; in assay [1] (peptide 0.3 μM) it was 0.916; in assay [1] (peptide 1.0 μM), 0.948. The “Optical Densities in 96_Well Plate” value in assay [1] (peptide 0.01 μM) is 0.907 and 0.905 and 0.633 and 1.209 and 0.928; in assay [1] (peptide 0.03 μM), 0.892 and 0.765 and 0.693 and 1.151 and 0.970; in assay [1] (peptide 0.1 μM), 0.680 and 0.895 and 0.893 and 1.156 and 0.964; in assay [1] (peptide 0.3 μM) it was 0.875 and 0.817 and 0.855 and 1.024 and 1.010; in assay [1] (peptide 1.0 μM) it was 0.856 and 0.752 and 0.802 and 1.083 and 1.248.
On to “ANP: Natriuretic peptide; Table III sequence SLRRSSCFGGRMDRIGAQSGLGCNSFRY, SEQ ID NO:126 [reference compound]”, for which the “Optical Densities … Average” value was 0.908 in assay [1] (peptide 0.01 μM); 0.935 in assay [1] (peptide 0.03 μM); 0.838 in assay [1] (peptide 0.1 μM); 0.974 in assay [1] (peptide 0.3 μM); 0.914 in assay [1] (peptide 1.0 μM). Also, the “Optical Densities in 96_Well Plate” value in assay [1] (peptide 0.01 μM) is 0.981 and 0.815 and 0.822 and 0.965 and 0.955; in assay [1] (peptide 0.03 μM), 0.948 and 0.882 and 0.911 and 0.951 and 0.982; in assay [1] (peptide 0.1 μM) it was 0.884 and 0.889 and 0.907 and 0.862 and 0.650; in assay [1] (peptide 0.3 μM) it was 1.001 and 0.889 and 0.837 and 0.934 and 1.209; in assay [1] (peptide 1.0 μM) it was 1.018 and 0.819 and 0.954 and 0.829 and 0.951. In the assay on cancer cells, the “anticancer activity / relative potency” value was “greater potency observed for ANP than CNP; also recorded: have anticancer activity”. For the same substance, the “binding affinity at NPRC” value with NPRC is reported as “higher binding affinities”. Further, the “binding affinity at NPRA” value in the assay with NPRA was “higher binding affinities”.
AGAALSPL [Ala-8-Leu, ID NO:85]: the “Optical Densities … Average” value in assay [1] (peptide 0.01 μM) is on record as 0.937; in assay [1] (peptide 0.03 μM) it was 0.976; in assay [1] (peptide 0.1 μM), 0.991; in assay [1] (peptide 0.3 μM) it was 1.002; in assay [1] (peptide 1.0 μM) it was 0.985. The “Optical Densities in 96_Well Plate” value was 0.744 and 0.878 and 1.000 and 0.892 and 1.169 in assay [1] (peptide 0.01 μM); 0.892 and 0.937 and 0.989 and 0.921 and 1.139 in assay [1] (peptide 0.03 μM); 0.832 and 1.006 and 1.031 and 0.910 and 1.174 in assay [1] (peptide 0.1 μM); 0.784 and 0.802 and 0.998 and 1.357 and 1.070 in assay [1] (peptide 0.3 μM); 0.732 and 1.216 and 0.954 and 0.834 and 1.189 in assay [1] (peptide 1.0 μM).
Regarding “EVVPPQVLSEPNEEAGAALSPLPEVPPWTGEVSPAQR [KT-220 (VDL), ID NO:125]”, the “anticancer activity / relative potency” value in the assay on cancer cells is listed as “have anticancer activity”.
